According to patent US11116757B2 (priority 2015, dated 2021):
Entries after “also recorded” stand apart in the source; their conditions may differ.

How the values were obtained:
HCC95 cells = experiment: Soft agar anchorage independent growth assay; assay type: cell-based; conditions: 10 μM
[1] = Seven day spermatogenesis study; assay type: in vivo; conditions: for Weight: oral gavage, B.I.D.; for Motility / Sperm Count / Viability (%): oral gavage B.I.D.
[2] = preliminary experiment
in vivo = conditions: for concentration at 3 day / concentration at 7 day / concentration at 24.4 h / concentration at […] / concentration at 1 h: male; for concentration at 3 day: Day 3; for concentration at 7 day: Day 7
HCC95 cancer cells = experiment: Cullin neddylation in cancer cells (cell lysis and western blot); assay type: cell-based
Description: Cell pellets harvested from a 6 well dish were resuspended in 30-40 μL of lysis buffer (50 mM Tris, 150 mM NaCl, 0.5% NP-40, 0.1% SDS, 6.5 M Urea, 2 mM 1,10-orthophenanthroline, 1× Halt Protease and Phosphatase inhibitor cocktail (ThermoFisher), 0.25 kU Universal Nuclease (ThermoFisher), pH 7.5). Cell pellet suspensions were incubated on ice for 25 minutes with occasional mixing by pipetting up and down. Lysates were cleared by centrifugation at 13 K rpm for 20 minutes and the supernatant was removed as total cell lysate sample. Protein concentration of the cell lysate was determined by BCA assay (Pierce) using BSA as a control. Cell lysates were diluted into 2×SDS-PAGE sample buffer such that 25 μg of total protein was loaded per well. […] Primary antibodies were prepared in blocking buffer and incubated with membranes overnight at 4° C. with rocking. Membranes were extensively washed in 1×TBS, 0.1% Tween-20. Secondary antibodies were prepared in blocking buffer according to the manufactures recommendations and incubated with membranes for 1 hour at room temperature. After extensive washing the membranes were developed with SuperSignal West Pico Chemiluminescent substrate (ThermoFisher) and developed by film exposure (HyBlot CL, Denville scientific).

U-2 OS cells = experiment: Electron microscopy of compound treated cells; assay type: cell-based
[3] = Plasma Concentration (μM), 50 mg/kg
[4] = Plasma Concentration (μM), 100 mg/kg
[5] = Plasma Concentration, Repeat Dose (0 and 7.5 hr)
[6] = Plasma Concentration, Single Dose (0 hr)
[7] = Testis Concentration (μM), 50 mg/kg
[8] = Testis Concentration (μM), 100 mg/kg
[9] = Testis Concentration, Repeat Dose (0 and 7.5 hr)
[10] = Testis Concentration, Single Dose (0 hr)

For CCCCN1CCC(N(Cc2ccccc2)C(=O)Nc2ccc(Cl)c(Cl)c2)CC1 [A7], the anchorage independent growth (HCC95 cells) was “inhibit the anchorage independent growth of HCC95 cells”, the Weight ([1]; 50 mpk) was 146.3 ± 27.7 mg and the Weight ([1]; 100 mpk) was 150.1 ± 18.9 mg. For the same compound, the Motility ([1]; animal 50 mpk-1) was “Stationary”, the “Sperm Count” value ([1]; animal 50 mpk-1) was “Low” and the “Viability (%)” value ([1]; animal 50 mpk-1) was less than 20%. The Motility ([1]; animal 50 mpk-2) was “Stationary”, the “Sperm Count” value ([1]; animal 50 mpk-2) was “Low” and the “Viability (%)” value ([1]; animal 50 mpk-2) was 0%. For the same compound, the Motility ([1]; animal 50 mpk-3) was “Good, erratic”, the “Sperm Count” value ([1]; animal 50 mpk-3) was “Normal” and the “Viability (%)” value ([1]; animal 50 mpk-3) was greater than 50%. The Motility ([1]; animal 100 mpk-1) was “No movement”, the “Sperm Count” value ([1]; animal 100 mpk-1) was “Low” and the “Viability (%)” value ([1]; animal 100 mpk-1) was less than 10%. The Motility ([1]; animal 100 mpk-2) was “Erratic”, the “Sperm Count” value ([1]; animal 100 mpk-2) was “Low” and the “Viability (%)” value ([1]; animal 100 mpk-2) was less than 5%. The Motility ([1]; animal 100 mpk-3) was “Limited”, the “Sperm Count” value ([1]; animal 100 mpk-3) was “Low” and the “Viability (%)” value ([1]; animal 100 mpk-3) was less than 10%. For the same compound, the maximum serum concentration [2] was 1.5 to 3 µM, the half-life (in vivo) was 4 to 5 h and the concentration at 3 day (in vivo; [3]) was 2.7 ± 2.4 µM. It also gave a concentration at 7 day (in vivo; [3]) of 1.7 ± 1.2 µM, a concentration at 3 day (in vivo; [4]) of 2.4 ± 1.2 µM and a concentration at 7 day (in vivo; [4]) of 1.4 ± 0.6 µM. The concentration at 24.4 h (in vivo; [5]) was 0.62 ± 0.16 µM, the concentration at […] (in vivo; [5]) was 4.8 ± 1.3 µM and the concentration at 1 h (in vivo; [6]) was 3.7 ± 0.95 µM. The concentration at 24.4 h (in vivo; [6]) was 0.47 ± 0.32 µM, the concentration at 3 day (in vivo; [7]) was 11.6 ± 3.4 µM and the concentration at 7 day (in vivo; [7]) was 8.25 ± 4.1 µM. It also gave a concentration at 3 day (in vivo; [8]) of 25.9 ± 11.1 µM, a concentration at 7 day (in vivo; [8]) of 31.2 ± 12.8 µM and a concentration at 24.4 h (in vivo; [9]) of 6.2 ± 5.3 µM. It also gave a concentration at […] (in vivo; [9]) of 16.7 ± 3.1 µM, a concentration at 1 h (in vivo; [10]) of 2.1 ± 0.74 µM and a concentration at 24.4 h (in vivo; [10]) of 4.4 ± 3.3 µM. For the same compound, the “levels of neddylated Cullins / cullin neddylation” value (HCC95 cancer cells) was “reduce the levels of neddylated Cullins; also recorded: selectively inhibit cullin neddylation” and the “vacuolar structures by electron microscopy” value (U-2 OS cells) was “presence of large vacuolar structures”.
